From ChEMBL document CHEMBL1201862, “PubChem BioAssay data set” (2004)
Activity calls are given as the source filed them.

Tests used:
[1] = Luminescence Cell-Based Dose Confirmation HTS to Identify Activators of 5'UTR Stem-Loop Driven Alpha-Synuclein mRNA Translation in H4 Neuroglioblastoma Cells. [Related pubchem assays: 1829 (Project Summary), 1814 (Primary HTS)]; format: functional
[2] = Luminescence Cell-Based Dose Response HTS to Identify Activators of Luciferase Translation or Activity in H4 […] Cells. [Related pubchem assays: 1829 (Project Summary), 1814 (Primary HTS)]; format: functional
H4 = test: Luminescence Cell-Based Dose Response HTS to Identify Activators of 5'UTR Stem-Loop Driven Prion Protein mRNA Translation in H4 Neuroglioblastoma Cells. [Related pubchem assays: 1829 (Project Summary), 1814 (Primary HTS)]; format: functional; settings: Homo sapiens
[3] = target: Heat shock protein HSP 90-alpha (Homo sapiens, UniProt P07900); format: functional, organism-based
Nonstructural protein 1 = Nonstructural protein 1 (Influenza A virus, UniProt Q194T2); format: functional, Influenza A virus (A/California/07/2009(H1N1))
[4] = target: T1, Microphthalmia-associated transcription factor (Homo sapiens, UniProt O75030); test: reducers of TRPM1 reporter luminescence, concentration series – cell-based, SK-MEL-5, cherry-picked, set 3, MITF inhibitor project, dose response (AID 493073); format: functional;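 note: SK-MEL-5 melanoma cells with luciferase driven by the MITF target TRPM1 promoter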
T1 sequence (O75030 whole entry): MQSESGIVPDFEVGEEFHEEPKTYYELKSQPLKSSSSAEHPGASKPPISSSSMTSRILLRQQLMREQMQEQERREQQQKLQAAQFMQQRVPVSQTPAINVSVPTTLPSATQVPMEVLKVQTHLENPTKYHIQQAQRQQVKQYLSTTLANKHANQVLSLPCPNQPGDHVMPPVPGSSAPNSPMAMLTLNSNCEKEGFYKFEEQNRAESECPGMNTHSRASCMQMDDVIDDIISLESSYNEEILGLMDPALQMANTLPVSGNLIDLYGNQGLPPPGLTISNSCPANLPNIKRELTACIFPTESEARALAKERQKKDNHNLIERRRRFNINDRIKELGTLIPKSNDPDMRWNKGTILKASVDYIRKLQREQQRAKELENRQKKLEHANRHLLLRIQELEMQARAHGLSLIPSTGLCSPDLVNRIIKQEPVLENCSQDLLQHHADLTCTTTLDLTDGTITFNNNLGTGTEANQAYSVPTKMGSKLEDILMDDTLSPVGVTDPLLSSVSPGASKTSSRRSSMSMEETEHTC

INS1 = test: INS-1E survival protection against cytokine death – cell-based, luminescence, retest, dose response (AID 449756); format: functional; settings: Rattus norvegicus;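 note: cell death triggered by IL-1 beta plus TNF-alpha plus IFN-gamma mixture; protective hits raise ATP signal compared with cytokine alone wells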
[5] = target: T2, Heat shock factor protein 1 (Mus musculus, UniProt P38532); test: enhancement of HSF1-driven luciferase signal – cell-based, NIH3T3, luminescence, dose retest, confirmation (AID 435004); format: functional;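 note: stress induced by proteasome inhibitor MG132 added 30 min after compound; luciferase reporter driven by HSF1 response element in NIH3T3 cells; actives raise luminescence as potentiators of the MG132 stress response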
T2 sequence (P38532 whole entry): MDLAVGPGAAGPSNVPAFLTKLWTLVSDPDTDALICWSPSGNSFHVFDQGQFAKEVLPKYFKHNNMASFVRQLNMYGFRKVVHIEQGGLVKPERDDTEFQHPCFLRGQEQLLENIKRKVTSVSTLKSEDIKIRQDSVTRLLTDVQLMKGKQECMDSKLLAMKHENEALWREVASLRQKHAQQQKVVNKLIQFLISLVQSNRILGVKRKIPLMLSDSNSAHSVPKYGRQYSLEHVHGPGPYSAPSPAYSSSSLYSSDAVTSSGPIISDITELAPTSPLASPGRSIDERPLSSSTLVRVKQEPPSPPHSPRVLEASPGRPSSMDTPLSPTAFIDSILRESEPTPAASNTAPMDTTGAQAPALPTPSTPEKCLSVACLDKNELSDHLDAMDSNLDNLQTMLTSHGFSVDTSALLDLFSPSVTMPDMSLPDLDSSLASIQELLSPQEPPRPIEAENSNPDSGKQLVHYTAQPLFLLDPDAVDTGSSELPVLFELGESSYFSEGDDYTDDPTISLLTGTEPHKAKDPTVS

[6] = target: T3, Replicative DNA helicase DnaB (Mycobacterium tuberculosis, UniProt P9WMR3); test: DnaB intein splicing inhibitors, dose response, biochemical, cell-free fluorescence (AID 449749); format: functional
T3 sequence (P9WMR3 whole entry): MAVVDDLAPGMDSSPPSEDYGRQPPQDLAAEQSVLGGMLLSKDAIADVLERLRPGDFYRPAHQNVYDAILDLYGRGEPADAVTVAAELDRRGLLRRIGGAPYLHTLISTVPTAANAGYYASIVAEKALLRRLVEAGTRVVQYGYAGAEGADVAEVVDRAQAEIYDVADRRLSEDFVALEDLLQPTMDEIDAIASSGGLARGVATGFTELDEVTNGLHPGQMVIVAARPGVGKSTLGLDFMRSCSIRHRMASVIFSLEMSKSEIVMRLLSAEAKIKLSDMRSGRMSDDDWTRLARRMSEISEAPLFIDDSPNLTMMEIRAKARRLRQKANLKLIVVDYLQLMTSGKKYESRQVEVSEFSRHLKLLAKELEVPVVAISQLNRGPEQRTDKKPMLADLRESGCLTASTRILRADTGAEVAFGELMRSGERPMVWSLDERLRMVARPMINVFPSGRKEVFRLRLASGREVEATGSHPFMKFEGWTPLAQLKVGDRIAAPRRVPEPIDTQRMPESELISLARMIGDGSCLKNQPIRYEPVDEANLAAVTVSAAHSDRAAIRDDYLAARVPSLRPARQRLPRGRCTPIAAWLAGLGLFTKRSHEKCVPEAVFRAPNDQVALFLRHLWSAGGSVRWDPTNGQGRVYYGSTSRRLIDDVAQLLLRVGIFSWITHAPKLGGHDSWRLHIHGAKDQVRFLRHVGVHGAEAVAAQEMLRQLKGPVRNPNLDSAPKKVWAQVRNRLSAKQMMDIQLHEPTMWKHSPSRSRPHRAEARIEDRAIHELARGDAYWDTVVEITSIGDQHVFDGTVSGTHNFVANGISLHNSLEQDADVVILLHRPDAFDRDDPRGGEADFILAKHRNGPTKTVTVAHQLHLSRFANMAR

Protein RecA = target: T4, Protein RecA (Mycobacterium tuberculosis, UniProt P9WHJ3); test: Fluorescence Cell-Free Homogeneous Dose Retest to Identify Inhibitors of RecA-Intein Splicing Activity. [Related pubchem assays (depositor defined):AID2097, AID2223, AID489010, AID492950]; format: functional
T4 sequence (P9WHJ3 whole entry): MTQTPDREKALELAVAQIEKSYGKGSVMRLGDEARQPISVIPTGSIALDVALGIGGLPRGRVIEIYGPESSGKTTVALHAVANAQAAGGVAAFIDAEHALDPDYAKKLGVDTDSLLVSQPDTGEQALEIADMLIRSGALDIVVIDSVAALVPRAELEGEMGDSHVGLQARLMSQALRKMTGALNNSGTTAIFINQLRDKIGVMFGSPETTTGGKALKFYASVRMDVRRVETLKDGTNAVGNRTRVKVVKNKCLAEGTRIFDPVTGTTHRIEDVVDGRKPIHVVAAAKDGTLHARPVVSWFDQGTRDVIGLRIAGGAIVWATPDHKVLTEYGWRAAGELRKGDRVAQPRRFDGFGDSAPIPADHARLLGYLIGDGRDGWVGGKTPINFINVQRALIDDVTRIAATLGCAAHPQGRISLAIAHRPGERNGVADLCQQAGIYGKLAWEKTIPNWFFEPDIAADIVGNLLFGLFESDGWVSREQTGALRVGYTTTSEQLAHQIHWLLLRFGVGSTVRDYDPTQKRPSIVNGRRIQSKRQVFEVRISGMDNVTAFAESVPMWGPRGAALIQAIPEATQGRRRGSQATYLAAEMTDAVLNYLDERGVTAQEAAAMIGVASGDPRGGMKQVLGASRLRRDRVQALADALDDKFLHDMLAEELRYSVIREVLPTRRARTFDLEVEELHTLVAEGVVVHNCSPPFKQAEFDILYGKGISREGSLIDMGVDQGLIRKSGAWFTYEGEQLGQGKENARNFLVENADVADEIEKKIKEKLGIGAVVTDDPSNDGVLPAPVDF

[7] = HGIII-sPLA2 enzyme inhibition potency – biochemical, QFRET, IC50, dose response (AID 743457);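 note: green fluorescence rise as the enzyme cleaves BODIPY PC-A2 in liposomes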
Estrogen receptor beta = Estrogen receptor beta (Homo sapiens, UniProt Q92731);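 note: recombinant ER-beta bound to coactivator SRC1 peptide in presence of estradiol agonist; inhibitors block coactivator peptide binding and lower the FRET signal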
Large T antigen = Large T antigen (Simian virus 40, UniProt P03070); format: functional, Betapolyomavirus macacae;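 note: Confirmatory-stage PubChem screen for compounds that inhibit SV40 T antigen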
[8] = intracellular Trypanosoma cruzi inhibitors in host cells – cell-based, plate reader, cherry-pick samples, set 3, dose response (AID 651818); format: functional;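 note: compounds incubated with infected cells for about four days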
Paired box protein Pax-8 = Paired box protein Pax-8 (Homo sapiens, UniProt Q06710); test: PAX8 transcriptional activity inhibition in RMG-I – RMG-I cells, luciferase, cherry-pick, dose response (AID 687027); format: functional, cell-based;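 note: luciferase reporter driven by Pax8 target thyroperoxidase promoter measured by SteadyGlo luminescence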
[9] = IGROV1 cell killing – plate reader, dry powder samples, PAX8 inhibitor project, dose response (AID 743043); format: functional, cell-based; settings: IGROV-1
[10] = target: T5, DNA repair protein RAD52 homolog (Homo sapiens, UniProt P43351); format: functional, biochemical
T5 sequence (P43351 whole entry): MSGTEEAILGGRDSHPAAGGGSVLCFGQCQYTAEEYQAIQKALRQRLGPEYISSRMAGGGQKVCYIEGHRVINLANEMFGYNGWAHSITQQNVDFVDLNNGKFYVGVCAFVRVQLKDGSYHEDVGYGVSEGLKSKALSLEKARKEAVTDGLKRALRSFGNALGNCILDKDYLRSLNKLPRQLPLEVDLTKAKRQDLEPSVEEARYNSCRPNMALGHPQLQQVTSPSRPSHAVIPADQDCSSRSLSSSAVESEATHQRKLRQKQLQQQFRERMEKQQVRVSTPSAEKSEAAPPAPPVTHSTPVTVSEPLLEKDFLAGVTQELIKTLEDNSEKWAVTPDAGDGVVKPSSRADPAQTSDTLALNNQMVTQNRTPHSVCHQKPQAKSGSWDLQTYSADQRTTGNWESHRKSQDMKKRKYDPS

Sequence of Paired box protein Pax-8 (Q06710 whole entry): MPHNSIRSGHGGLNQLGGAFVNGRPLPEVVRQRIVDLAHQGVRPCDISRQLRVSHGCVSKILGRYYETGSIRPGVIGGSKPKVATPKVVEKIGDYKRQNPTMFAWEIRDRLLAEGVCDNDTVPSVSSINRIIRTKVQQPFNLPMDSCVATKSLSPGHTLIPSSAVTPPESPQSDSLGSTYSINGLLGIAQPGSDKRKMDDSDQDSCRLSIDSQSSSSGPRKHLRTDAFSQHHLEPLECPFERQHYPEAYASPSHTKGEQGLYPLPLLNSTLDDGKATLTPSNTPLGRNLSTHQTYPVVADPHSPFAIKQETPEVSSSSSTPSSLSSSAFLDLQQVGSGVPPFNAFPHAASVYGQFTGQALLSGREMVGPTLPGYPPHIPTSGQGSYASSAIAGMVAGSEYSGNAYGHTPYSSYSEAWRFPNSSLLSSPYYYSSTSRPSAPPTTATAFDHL
Sequence of Nonstructural protein 1 (Q194T2 whole entry): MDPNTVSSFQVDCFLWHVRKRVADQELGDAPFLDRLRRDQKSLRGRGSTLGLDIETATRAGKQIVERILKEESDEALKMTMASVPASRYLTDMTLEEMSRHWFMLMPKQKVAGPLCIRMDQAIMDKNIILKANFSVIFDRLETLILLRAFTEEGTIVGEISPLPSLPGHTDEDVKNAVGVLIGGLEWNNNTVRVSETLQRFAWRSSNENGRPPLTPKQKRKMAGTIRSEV
Sequence of Estrogen receptor beta (Q92731 whole entry): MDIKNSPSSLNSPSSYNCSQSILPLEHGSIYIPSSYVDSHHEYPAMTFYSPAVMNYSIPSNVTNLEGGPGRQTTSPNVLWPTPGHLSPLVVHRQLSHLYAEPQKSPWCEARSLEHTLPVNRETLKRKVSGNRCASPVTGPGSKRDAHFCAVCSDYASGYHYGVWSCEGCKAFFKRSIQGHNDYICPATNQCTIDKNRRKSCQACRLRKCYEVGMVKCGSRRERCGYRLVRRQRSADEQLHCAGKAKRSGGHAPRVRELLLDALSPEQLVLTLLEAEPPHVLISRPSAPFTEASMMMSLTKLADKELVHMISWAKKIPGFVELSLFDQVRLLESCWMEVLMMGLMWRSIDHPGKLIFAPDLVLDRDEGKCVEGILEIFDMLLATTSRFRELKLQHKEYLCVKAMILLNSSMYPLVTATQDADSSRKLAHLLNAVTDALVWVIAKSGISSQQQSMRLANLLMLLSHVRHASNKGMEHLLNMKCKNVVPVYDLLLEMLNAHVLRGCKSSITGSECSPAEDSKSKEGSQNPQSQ
Sequence of Large T antigen (P03070 whole entry): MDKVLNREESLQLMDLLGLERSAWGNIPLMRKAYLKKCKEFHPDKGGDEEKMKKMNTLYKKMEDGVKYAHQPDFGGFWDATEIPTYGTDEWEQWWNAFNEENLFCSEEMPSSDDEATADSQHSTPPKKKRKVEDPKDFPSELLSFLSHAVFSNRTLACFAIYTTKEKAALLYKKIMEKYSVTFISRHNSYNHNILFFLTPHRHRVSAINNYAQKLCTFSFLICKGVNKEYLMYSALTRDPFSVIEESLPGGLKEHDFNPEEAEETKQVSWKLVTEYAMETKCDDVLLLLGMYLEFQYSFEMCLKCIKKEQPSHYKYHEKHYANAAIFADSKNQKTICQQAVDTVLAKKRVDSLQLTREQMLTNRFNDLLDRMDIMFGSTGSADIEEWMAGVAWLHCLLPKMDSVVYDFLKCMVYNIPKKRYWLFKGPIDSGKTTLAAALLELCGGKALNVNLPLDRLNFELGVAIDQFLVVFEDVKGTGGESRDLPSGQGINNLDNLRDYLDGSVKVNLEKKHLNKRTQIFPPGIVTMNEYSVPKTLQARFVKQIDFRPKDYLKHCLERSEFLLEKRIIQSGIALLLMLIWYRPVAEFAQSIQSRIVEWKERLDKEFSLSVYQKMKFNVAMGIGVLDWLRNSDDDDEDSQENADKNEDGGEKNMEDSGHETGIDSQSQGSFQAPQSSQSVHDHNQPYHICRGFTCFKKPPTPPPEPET

O=C1CC(c2ccccc2)=NN1c1nc(-c2ccccc2)cs1
EC50 [1]: 13.2 µM (active)
EC50 [2]: 11.4 µM (active)
EC50 (H4): > 120 µM (not active)
AC50 [3]: 3.34 µM (active)

CN(C)C1CCN(Cc2cc(COCc3ccccc3)c3cccnc3c2O)C1 (centres undefined)
IC50 (Nonstructural protein 1): 5.98 µM (active)
AC50 [4]: 9.99 µM (active)
AC50 (INS1): 2.78 µM (active)

Cc1c(C#N)c(NC(=O)CCl)n(Cc2ccccc2)c1C
EC50 [5]: > 260 µM (inactive)
AC50 [4]: 11.2 µM (active)
AC50 [6]: 21.5 µM (active)
EC50 (Protein RecA): 3.39 µM (active)

CCCn1c(N=C(S)Nc2ccccc2)nc2ccccc21
IC50 [7]: 112 µM (inactive)

Cc1cccc(-n2c(SCCC(=O)O)nnc2-c2cccs2)c1C
IC50 (Estrogen receptor beta): > 50 µM (not active)

Nc1cccc(Nc2nc(OC(C(F)(F)F)C(F)(F)F)nc(OC(C(F)(F)F)C(F)(F)F)n2)c1
IC50 [7]: > 122 µM (inactive)

CCOC(=O)C(=NC(C)CC)NNc1cccc(C(F)(F)F)c1 (centres undefined)
IC50 [7]: > 122 µM (inactive)

Cc1sc2nc(C3CC3)nc(SCC(=O)NCc3ccco3)c2c1C
AC50 [3]: 5.75 µM (active)

Cc1ccc(NC(S)=NNC(=O)c2nnn(-c3ccccc3)c2C)cc1
IC50 [7]: > 122 µM (inactive)

CC(NC(=O)c1ccc(Br)cc1)c1ccc2c(c1)CCCC2 (centres undefined)
AC50 [3]: 2.75 µM (active)

N#Cc1c(N/C=C2\C(=O)NC(=O)N(Cc3ccco3)C2=O)sc2c1CCCC2
IC50 (Large T antigen): 32.6 µM (active)
IC50 (Estrogen receptor beta): > 50 µM (not active)

CSC(=S)NN=C(C)c1cccc(C)n1
IC50 (Nonstructural protein 1): 1.1 µM (active)
AC50 [3]: 23.7 µM (active)

COc1ccc(S(=O)(=O)Nc2ccc3c(c2)C(=O)N([C@H](C)CO)C[C@H](C)[C@H](CN(C)C(=O)Nc2ccc(C(F)(F)F)cc2)OCCCC[C@@H](C)O3)cc1
AC50 [8]: 2.64 µM (active)

C[C@@H]1CN([C@H](C)CO)C(=O)c2cccc(NC(=O)NC3CCCCC3)c2O[C@@H]1CN(C)Cc1ccc(-c2ccccc2)cc1
AC50 [8]: 3.37 µM (active)

Cc1ccc(S(=O)(=O)Nc2ccc3c(c2)C(=O)N([C@H](C)CO)C[C@H](C)[C@H](CN(C)Cc2ccc(C(=O)Nc4ccccc4N)cc2)OCCCC[C@@H](C)O3)cc1
AC50 [8]: 2.44 µM (active)

C[C@H]1CN([C@@H](C)CO)C(=O)Cc2cc(NS(=O)(=O)c3ccc(F)cc3)ccc2O[C@@H]1CN(C)Cc1ccc(C(F)(F)F)cc1
AC50 [8]: 4.8 µM (active)

Cc1ccc(S(=O)(=O)Nc2cccc3c2O[C@@H](CN(C)Cc2ccc(-c4ccccc4)cc2)[C@@H](C)CN([C@H](C)CO)C3=O)cc1
AC50 [8]: 3.16 µM (active)

Cc1ccc(S(=O)(=O)Nc2cccc3c2O[C@@H](CN(C)Cc2ccc(C(=O)Nc4ccccc4N)cc2)[C@H](C)CN([C@@H](C)CO)C3=O)cc1
AC50 [8]: 3.2 µM (active)

Cc1ccccc1-c1ccc([C@@H]2[C@@H](CO)N3CCCCN(C(=O)NC4CCCC4)C[C@H]23)cc1
AC50 (Paired box protein Pax-8): 21.6 µM (active)
AC50 [9]: 52.2 µM (active)

C[C@@H]1CN([C@H](C)CO)C(=O)c2cc(NC(=O)Nc3ccc(F)cc3)ccc2O[C@@H](C)CCCCO[C@H]1CN(C)C(=O)C1CCCCC1
AC50 (Paired box protein Pax-8): 5.55 µM (active)
AC50 [9]: 50.3 µM (active)

COc1ccc2c(c1)c[n+](C)c1c3cc(OC)c(OC)cc3ccc21
AC50 [10]: 0.558 µM (active)
IC50 [7]: > 122 µM (inactive)
